What was measured:
Test in all cases: relative viability (nuclei count vs DMSO), 5 days (fraction); higher = more cells survive
A-427 = test system: A-427
In short: (§1)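 Relative viability divides the nuclei count in treated wells by that in vehicle wells. Lung cancer cell lines were seeded in 1536-well plates, dosed by pin tool the next day, and fixed and stained after 5 days in one step with final 0.05% Triton X-100, 1% formaldehyde and 1 ug/ml Hoechst. Dosing was a single drug or a fixed anchor-drug dose plus five library-drug doses (not always all listed) in √10 steps, and values are medians of duplicate plates imaged at 4×.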

COR-L 105 = test system: COR-L 105
In short: as §1

EKVX = test system: EKVX
In short: as §1

EMC-BAC-2 = test system: EMC-BAC-2
In short: as §1

H3255 = test system: H3255
In short: as §1

HCC-366 = test system: HCC-366
In short: as §1

LK-2 = test system: LK-2
In short: as §1

LOU-NH91 = test system: LOU-NH91
In short: as §1

NCI-H1563 = test system: NCI-H1563
In short: as §1

NCI-H1666 = test system: NCI-H1666
In short: as §1

NCI-H1734 = test system: NCI-H1734
In short: as §1

NCI-H1755 = test system: NCI-H1755
In short: as §1

NCI-H1792 = test system: NCI-H1792
In short: as §1

NCI-H1944 = test system: NCI-H1944
In short: as §1

NCI-H1975 = test system: NCI-H1975
In short: as §1

NCI-H23 = test system: NCI-H23
In short: as §1

NCI-H441 = test system: NCI-H441
In short: as §1

NCI-H520 = test system: NCI-H520
In short: as §1

NCI-H596 = test system: NCI-H596
In short: as §1

PC-3 [JPC-3] = test system: PC-3 [JPC-3]
In short: as §1

SK-MES-1 = test system: SK-MES-1
In short: as §1

In the case of `C[C@@H]1CN(CC(=O)Nc2ccc3c(c2)Cc2cccc(-c4cc(=O)cc(N5CCOCC5)o4)c2S3)C[C@H](C)O1` + C[C@]1(O)C[C@@H](c2nc(-c3ccc4ccc(-c5ccccc5)nc4c3)c3c(N)nccn32)C1 [Linsitinib] (partner 1 µM), the relative viability (A-427; first compound 0.04 µM) is reported as 1.23, the relative viability (A-427; first compound 0.1265 µM) is reported as 1.14 and the relative viability (A-427; first compound 0.4 µM) is reported as 1.12. For the same compound, the relative viability (A-427; first compound 4 µM) was 1.11, the relative viability (COR-L 105; first compound 0.04 µM) was 1.01 and the relative viability (COR-L 105; first compound 0.1265 µM) was 1.1. For the same compound, the relative viability (COR-L 105; first compound 0.4 µM) was 0.746, the relative viability (COR-L 105; first compound 4 µM) was 0.996 and the relative viability (EKVX; first compound 0.04 µM) was 0.954. The relative viability (EKVX; first compound 0.1265 µM) was 0.982, the relative viability (EKVX; first compound 0.4 µM) was 0.963 and the relative viability (EKVX; first compound 4 µM) was 0.972. For the same compound, the relative viability (EMC-BAC-2; first compound 0.04 µM) was 0.805, the relative viability (EMC-BAC-2; first compound 0.1265 µM) was 0.765 and the relative viability (EMC-BAC-2; first compound 0.4 µM) was 0.757. For the same compound, the relative viability (EMC-BAC-2; first compound 4 µM) was 0.77, the relative viability (H3255; first compound 0.04 µM) was 0.934 and the relative viability (H3255; first compound 0.1265 µM) was 1.04. The relative viability (H3255; first compound 0.4 µM) was 0.818, the relative viability (H3255; first compound 4 µM) was 0.879 and the relative viability (HCC-366; first compound 0.04 µM) was 0.752. It also gave a relative viability (HCC-366; first compound 0.1265 µM) of 0.622, a relative viability (HCC-366; first compound 0.4 µM) of 0.428 and a relative viability (HCC-366; first compound 4 µM) of 0.495. For the same compound, the relative viability (LK-2; first compound 0.04 µM) was 0.255, the relative viability (LK-2; first compound 0.1265 µM) was 0.394 and the relative viability (LK-2; first compound 0.4 µM) was 0.666. The relative viability (LK-2; first compound 4 µM) was 0.824, the relative viability (LOU-NH91; first compound 0.04 µM) was 1.02 and the relative viability (LOU-NH91; first compound 0.1265 µM) was 0.956. The relative viability (LOU-NH91; first compound 0.4 µM) was 0.906, the relative viability (LOU-NH91; first compound 4 µM) was 0.93 and the relative viability (NCI-H1563; first compound 0.04 µM) was 1.17. It also gave a relative viability (NCI-H1563; first compound 0.1265 µM) of 1.28, a relative viability (NCI-H1563; first compound 0.4 µM) of 0.988 and a relative viability (NCI-H1563; first compound 4 µM) of 1.1. The relative viability (NCI-H1666; first compound 0.04 µM) was 1.08, the relative viability (NCI-H1666; first compound 0.1265 µM) was 0.908 and the relative viability (NCI-H1666; first compound 0.4 µM) was 0.839. For the same compound, the relative viability (NCI-H1666; first compound 4 µM) was 0.565, the relative viability (NCI-H1734; first compound 0.04 µM) was 1.01 and the relative viability (NCI-H1734; first compound 0.1265 µM) was 0.85. For the same compound, the relative viability (NCI-H1734; first compound 0.4 µM) was 0.801, the relative viability (NCI-H1734; first compound 4 µM) was 0.92 and the relative viability (NCI-H1755; first compound 0.04 µM) was 1.01. It also gave a relative viability (NCI-H1755; first compound 0.1265 µM) of 0.913, a relative viability (NCI-H1755; first compound 0.4 µM) of 0.955 and a relative viability (NCI-H1755; first compound 4 µM) of 0.941. The relative viability (NCI-H1792; first compound 0.04 µM) was 0.503, the relative viability (NCI-H1792; first compound 0.1265 µM) was 0.519 and the relative viability (NCI-H1792; first compound 0.4 µM) was 0.564. For the same compound, the relative viability (NCI-H1792; first compound 4 µM) was 0.425, the relative viability (NCI-H1944; first compound 0.1265 µM) was 1.24 and the relative viability (NCI-H1944; first compound 0.4 µM) was 1.36. The relative viability (NCI-H1944; first compound 4 µM) was 1.22, the relative viability (NCI-H1975; first compound 0.04 µM) was 0.895 and the relative viability (NCI-H1975; first compound 0.1265 µM) was 0.866. The relative viability (NCI-H1975; first compound 0.4 µM) was 0.81, the relative viability (NCI-H1975; first compound 4 µM) was 0.8 and the relative viability (NCI-H23; first compound 0.04 µM) was 0.609. It also gave a relative viability (NCI-H23; first compound 0.1265 µM) of 0.496, a relative viability (NCI-H23; first compound 0.4 µM) of 0.489 and a relative viability (NCI-H23; first compound 4 µM) of 0.494. For the same compound, the relative viability (NCI-H441; first compound 0.04 µM) was 0.404, the relative viability (NCI-H441; first compound 0.1265 µM) was 0.573 and the relative viability (NCI-H441; first compound 0.4 µM) was 0.536. For the same compound, the relative viability (NCI-H441; first compound 4 µM) was 0.433, the relative viability (NCI-H520; first compound 0.04 µM) was 1.1 and the relative viability (NCI-H520; first compound 0.1265 µM) was 0.83. For the same compound, the relative viability (NCI-H520; first compound 0.4 µM) was 0.748, the relative viability (NCI-H520; first compound 4 µM) was 0.837 and the relative viability (NCI-H596; first compound 0.04 µM) was 1.12. The relative viability (NCI-H596; first compound 0.1265 µM) was 1.15, the relative viability (NCI-H596; first compound 0.4 µM) was 0.922 and the relative viability (NCI-H596; first compound 4 µM) was 1. For the same compound, the relative viability (PC-3 [JPC-3]; first compound 0.04 µM) was 1.06, the relative viability (PC-3 [JPC-3]; first compound 0.1265 µM) was 0.993 and the relative viability (PC-3 [JPC-3]; first compound 0.4 µM) was 0.952. For the same compound, the relative viability (PC-3 [JPC-3]; first compound 4 µM) was 0.868, the relative viability (SK-MES-1; first compound 0.04 µM) was 1.13 and the relative viability (SK-MES-1; first compound 0.1265 µM) was 1.06. It also gave a relative viability (SK-MES-1; first compound 0.4 µM) of 1.02 and a relative viability (SK-MES-1; first compound 4 µM) of 0.836.

For `CC(C)Oc1cc(Nc2nc(N[C@@H](C)c3ccc(F)cn3)ncc2Cl)n[nH]1` [AZ23] + C[C@]1(O)C[C@@H](c2nc(-c3ccc4ccc(-c5ccccc5)nc4c3)c3c(N)nccn32)C1 [Linsitinib] (partner 1 µM), the relative viability (A-427; first compound 0.01 µM) was 1.24, the relative viability (A-427; first compound 0.03162 µM) was 1.11 and the relative viability (A-427; first compound 0.3162 µM) was 1.16. For the same compound, the relative viability (COR-L 105; first compound 0.01 µM) was 0.664, the relative viability (COR-L 105; first compound 0.03162 µM) was 1.14 and the relative viability (COR-L 105; first compound 0.3162 µM) was 0.808. It also gave a relative viability (EKVX; first compound 0.01 µM) of 1.01, a relative viability (EKVX; first compound 0.03162 µM) of 1.22 and a relative viability (EKVX; first compound 0.3162 µM) of 0.969. For the same compound, the relative viability (EMC-BAC-2; first compound 0.01 µM) was 1.09, the relative viability (EMC-BAC-2; first compound 0.03162 µM) was 0.814 and the relative viability (EMC-BAC-2; first compound 0.3162 µM) was 0.884. For the same compound, the relative viability (H3255; first compound 0.01 µM) was 1.03, the relative viability (H3255; first compound 0.03162 µM) was 1.08 and the relative viability (H3255; first compound 0.3162 µM) was 0.985. The relative viability (HCC-366; first compound 0.01 µM) was 0.596, the relative viability (HCC-366; first compound 0.03162 µM) was 0.902 and the relative viability (HCC-366; first compound 0.3162 µM) was 0.56. The relative viability (LK-2; first compound 0.01 µM) was 0.325, the relative viability (LK-2; first compound 0.03162 µM) was 0.538 and the relative viability (LK-2; first compound 0.3162 µM) was 0.5. For the same compound, the relative viability (LOU-NH91; first compound 0.01 µM) was 0.85, the relative viability (LOU-NH91; first compound 0.03162 µM) was 0.966 and the relative viability (LOU-NH91; first compound 0.3162 µM) was 0.917. It also gave a relative viability (NCI-H1563; first compound 0.01 µM) of 1.14, a relative viability (NCI-H1563; first compound 0.03162 µM) of 1.19 and a relative viability (NCI-H1563; first compound 0.3162 µM) of 1.08. It also gave a relative viability (NCI-H1666; first compound 0.01 µM) of 0.719, a relative viability (NCI-H1666; first compound 0.03162 µM) of 0.943 and a relative viability (NCI-H1666; first compound 0.3162 µM) of 0.775. It also gave a relative viability (NCI-H1734; first compound 0.01 µM) of 0.921, a relative viability (NCI-H1734; first compound 0.03162 µM) of 0.814 and a relative viability (NCI-H1734; first compound 0.3162 µM) of 0.894. For the same compound, the relative viability (NCI-H1755; first compound 0.01 µM) was 1.13, the relative viability (NCI-H1755; first compound 0.03162 µM) was 1.03 and the relative viability (NCI-H1755; first compound 0.3162 µM) was 1.06. For the same compound, the relative viability (NCI-H1792; first compound 0.01 µM) was 0.565, the relative viability (NCI-H1792; first compound 0.03162 µM) was 0.597 and the relative viability (NCI-H1792; first compound 0.3162 µM) was 0.61. It also gave a relative viability (NCI-H1944; first compound 0.01 µM) of 1.12, a relative viability (NCI-H1944; first compound 0.03162 µM) of 1.18 and a relative viability (NCI-H1944; first compound 0.3162 µM) of 1.26. The relative viability (NCI-H1975; first compound 0.01 µM) was 1.13, the relative viability (NCI-H1975; first compound 0.03162 µM) was 1.06 and the relative viability (NCI-H1975; first compound 0.3162 µM) was 0.972. The relative viability (NCI-H23; first compound 0.03162 µM) was 0.697, the relative viability (NCI-H23; first compound 0.3162 µM) was 0.596 and the relative viability (NCI-H441; first compound 0.01 µM) was 0.608. For the same compound, the relative viability (NCI-H441; first compound 0.03162 µM) was 0.622, the relative viability (NCI-H441; first compound 0.3162 µM) was 0.591 and the relative viability (NCI-H520; first compound 0.01 µM) was 1.18. For the same compound, the relative viability (NCI-H520; first compound 0.03162 µM) was 1.04, the relative viability (NCI-H520; first compound 0.3162 µM) was 0.921 and the relative viability (NCI-H596; first compound 0.01 µM) was 1.09. For the same compound, the relative viability (NCI-H596; first compound 0.03162 µM) was 1.18, the relative viability (NCI-H596; first compound 0.3162 µM) was 1 and the relative viability (PC-3 [JPC-3]; first compound 0.01 µM) was 1.03. For the same compound, the relative viability (PC-3 [JPC-3]; first compound 0.03162 µM) was 1.04, the relative viability (PC-3 [JPC-3]; first compound 0.3162 µM) was 0.973 and the relative viability (SK-MES-1; first compound 0.01 µM) was 1.09. The relative viability (SK-MES-1; first compound 0.03162 µM) was 1.16 and the relative viability (SK-MES-1; first compound 0.3162 µM) was 1.12.
